Experimental data as given in PMC12567141, “Design, Synthesis and Biological Evaluation of Pyrazolopyrimidine Derivatives as Aryl Hydrocarbon Receptor Antagonists for Colorectal Cancer Immunotherapy” (Pharmaceutics, 2025).

Assays:
[1] = test system: MC38 and CT26 cells; assay: Apoptosis analysis (Annexin V / propidium iodide); type: cell-based; conditions: 24 h treatment
Experimental: Cells were washed with PBS containing 1% horse serum and stained with the FITC-Annexin V Apoptosis Detection Kit I (BD Biosciences) at room temperature for 30 min in the dark. DNA content, cell-cycle profiles, and forward scatter profiles were determined using the Becton Dickinson LSRFortessa^TM and analyzed with FlowJo software v11.

[2] = test system: PD-L1 expression in MC38 and CT26 cancer cells; assay: PD-L1 expression by FACS in IFNγ-treated colorectal cancer cells; type: cell-based
Experimental: For analysis of PD-L1 expression in colorectal cancer cells, MC38 in 24-well plates were treated with IFNγ (10 ng/mL) for 24 h and incubated with 5 and 10 μM for 24 h. Cells were collected and stained with APC-conjugated PD-L1 Ab at 4 °C for 30 min (BioLegend). After washing with FACS buffer (Biolegend) three times, the cells were analysed using Becton Dickinson LSRFortessa^TM and analyzed with FlowJo software. Isotype-matched monoclonal antibodies were used as controls. The data were analysed using Flowjo analysis software (FlowJo LLC, Ashland, OR, USA).

[3] = test system: MC38 tumor; assay: In vivo therapy, MC38 syngeneic model; design: species or system mice
Experimental: (§1) In vivo experiments were conducted using 6-week-old male immunocompetent BALB/c and C57BL/6 with 18–20 g body weight (Orient Bio Inc., Seungnam, Republic of Korea). All animal experimental procedures were maintained and used in accordance with the Guidelines for the Care and Use of Laboratory Animals of the Institute of Laboratory Animal Center, Daegu-Gyeongbuk Medical Innovation Foundation (K-MEDI hub). The animal studies were conducted after approval by the institutional reviewer board on the Ethics of Animal Experiments of the Daegu-Gyeongbuk Medical Innovation Foundation (approval number: KMEDI-24041103-01).
Study 1: Antitumor activity of 7k alone in mice with either CT26 syngeneic model or MC38 syngeneic model. Mice were subcutaneously challenged with 5 × 10^5 either MC38 or CT26 cells. […]
(§2) The 7k was dissolved in solution including 5% DMSO, 55% DW, and 40% PEG. Tumor size was measured with a caliper at the indicated time points, and tumor volume (mm^3) was calculated using the following formula, tumor volume (mm^3) = d2 × D/2, where d and D are the shortest and longest diameters in mm, respectively.

[4] = test system: CT26 tumor; assay: In vivo therapy, CT26 syngeneic model; design: species or system mice
Experimental: as §1
Study 1: Antitumor activity of 7k alone in mice with either CT26 syngeneic model or MC38 syngeneic model. Mice were subcutaneously challenged with 5 × 10^5 either MC38 or CT26 cells. When tumor formation was detected via inspection and palpation, 7k treatment was initiated once a day for 14 days by oral gavage.
Study 2: Antitumor activity of combination with anti-PD1 and 7k in CT26 tumor bearing mice. Mice were subcutaneously challenged with 5 × 10^5 CT26 cells. Tumor bearing mice were divided into four groups as following; Group 1: vehicle, Group 2: 10 mg/kg anti-PD1, Group 3: 10 mg/kg 7k, and Group 4: 10 mg/kg anti-PD1 + 10 mg/kg 7k. 7k was administered by oral gavage once daily. Anti-PD1 antibody (clone RPM1-14, Bio X cell, Lebanon, NH, USA) was injected intraperitoneally every 3 days for 4 doses.
as §2

[5] = test system: AhR; assay: AhR antagonist screening using Tg(cyp1a:egfp) zebrafish; type: in vivo; design: key to AhR Antagonist Activity at 100 nM: - no inhibition; + weak; ++ mild; +++ moderate; ++++ high; +++++ very high
Experimental: At 30 hpf, Tg(cyp1a:egfp) embryos were placed in a 2-mL screw-capped glass vial with five embryos per vial. Each vial contained 1 mL of E3 media (5 mM NaCl, 0.17 mM KCl, 0.33 mM CaCl2·2H2O and 0.4 mM MgCl2·6H2O, pH 7.2) and supplemented with 2 nM TCDD (1746-01-6; AccuStandard Inc., New Haven, NH, USA) dissolved in DMSO. The compounds were subsequently diluted and individually introduced into the vials, achieving a final concentration of 0.1% DMSO. The embryos were then incubated for 48 h and then embryonic EGFP expression was evaluated using a fluorescent stereomicroscope (SteREO Discovery V8; Zeiss, Oberkochen, BW, Germany). As a positive control, StemRegenin1 (72342, […] Technologies, Vancouver, BC, Canada) was employed.
To evaluate AhR antagonistic activity, we conducted an AhR antagonist assay using transgenic zebrafish. Zebrafish have garnered significant attention as model organisms for drug discovery because they share metabolic pathways with mammals. […] Therefore, we synthesized more meta substituted phenyl derivatives. […] We also synthesized heteroaromatic derivatives including pyrimidine and pyridine at 5-position; however, their activities were decreased.

[6] = test system: MC38/Luc cells; assay: Cytotoxic T lymphocyte (CTL) assay; type: cell-based; conditions: splenocytes of treated tumour-bearing mice, effector:target 10:1, luciferase activity
Experimental: Splenocytes were collected from tumour-bearing mice and stimulated with a cell activation cocktail (BioLegend) for 6 h. MC38/Luc cells as target cells were seeded in black, clear-bottomed 96-well plates (1 × 10^4 cells). After overnight incubation, splenocytes as effectors were added into wells containing target cells at an effector to target ratio of 10:1. LLC/Luc and CT26/Luc cells were used as negative target cells. Eleven hours later, luciferase activity was measured with an IVIS Lumina III instrument (PerkinElmer, Waltham, MA, USA).

[7] = test system: MC38 and CT26 cells; assay: Cell-cycle analysis by flow cytometry; type: cell-based; conditions: 24 h treatment
Experimental: Washed and fixed cells were stained in the dark with 0.5 mL propidium iodide/RNase staining buffer for 15 min at room temperature. DNA content, cell-cycle profiles, and forward scatter were analyzed using a Becton Dickinson LSRFortessa^TM (BD Diagnostics, San Jose, CA, USA) with emission detection at 488 nm (excitation) and 575 nm (peak emission). Data were analyzed using FlowJo (BD biosciences, San Jose, CA. USA).

CC(C)n1cc2nc(-c3cc(F)cc(F)c3)nc(NCCc3c[nH]c4ccccc34)c2n1 [Compound 7k, N-(2-(1H-indol-3-yl)ethyl)-5-(3,5-difluorophenyl)-2-isopropyl-2H-pyrazolo [4,3-d]pyrimidin-7-amine]
apoptosis [1]: increase in apoptosis
PD-L1 expression [2]: dose-dependent downregulation of PD-L1 expression
tumor growth inhibition (TGI) ([3]; MC38 model, combination study, 7k oral daily 20 days, anti-PD1 i.p. every three days four times): 45%
tumor growth inhibition (TGI) ([3]; MC38 model, comparison of 7k and 3′,4′-dimethoxyflavone, 10 mg/kg oral once a day, 18 days): 51%
tumor weight ([3]; MC38 tumor bearing mice, vs vehicle-treated mice (Figure S5)): significantly lower
tumor growth inhibition (TGI) ([3]; MC38 tumor-bearing mice, single agent, 10 mg/kg oral once a day for 14 days): 49%
tumor growth inhibition (TGI) ([4]; CT26 model, combination study, 7k 10 mg/kg oral daily 14 days, anti-PD1 10 mg/kg i.p. every 3 days x4): 49%
tumor weight ([4]; CT26 tumor bearing mice, vs vehicle-treated mice (Figure S4)): significantly lower
tumor growth inhibition (TGI) ([4]; CT26 tumor-bearing mice, single agent, 10 mg/kg oral once a day for 14 days): 33%
AhR antagonistic activity in zebrafish, in words ([5]; Tg(cyp1a:egfp) zebrafish, EGFP readout): significant antagonistic activity against AhR
AhR Antagonist Activity at 100 nM ([5]; extent of GFP reduction in Tg(cyp1a:egfp) zebrafish compared to the TCDD (2 nM) control, 100 nM, 48 h): +++++
CTL-mediated killing activity against MC38-luc cells [6]: minimal killing activity
sub-G1 fraction [7]: dose-dependent increase in the sub-G1 fraction
